How the values were obtained:
[1] = molecular target: Phosphatidylinositol 5-phosphate 4-kinase type-2 beta (Homo sapiens) (UniProt P78356); settings: Compound concentration 1000.0 nM
[2] = molecular target: Angiopoietin-1 receptor (Homo sapiens) (UniProt Q02763); settings: Compound concentration 1000.0 nM
[3] = molecular target: Activated CDC42 kinase 1 (Homo sapiens) (UniProt Q07912); settings: Compound concentration 1000.0 nM
[4] = molecular target: T1, Aurora kinase C (Homo sapiens) (UniProt Q9UQB9); settings: Compound concentration 1000.0 nM
T1 sequence (whole entry): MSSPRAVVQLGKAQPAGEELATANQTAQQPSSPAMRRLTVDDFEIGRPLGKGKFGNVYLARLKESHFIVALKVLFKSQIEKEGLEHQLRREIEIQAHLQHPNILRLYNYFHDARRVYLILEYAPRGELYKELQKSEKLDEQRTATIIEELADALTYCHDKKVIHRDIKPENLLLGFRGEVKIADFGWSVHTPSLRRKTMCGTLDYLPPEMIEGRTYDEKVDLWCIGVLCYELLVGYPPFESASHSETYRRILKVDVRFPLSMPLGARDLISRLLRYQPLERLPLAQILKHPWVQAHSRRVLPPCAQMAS

[5] = molecular target: Tyrosine-protein kinase Blk (Homo sapiens) (UniProt P51451); settings: Compound concentration 1000.0 nM
[6] = molecular target: Ribosomal protein S6 kinase alpha-1 (Homo sapiens) (UniProt Q15418); settings: Compound concentration 1000.0 nM
[7] = molecular target: 1-phosphatidylinositol 3-phosphate 5-kinase (Homo sapiens) (UniProt Q9Y2I7); settings: Compound concentration 1000.0 nM
[8] = molecular target: T2, Activin receptor type-1B (Homo sapiens) (UniProt P36896); settings: Compound concentration 1000.0 nM
T2 sequence (whole entry): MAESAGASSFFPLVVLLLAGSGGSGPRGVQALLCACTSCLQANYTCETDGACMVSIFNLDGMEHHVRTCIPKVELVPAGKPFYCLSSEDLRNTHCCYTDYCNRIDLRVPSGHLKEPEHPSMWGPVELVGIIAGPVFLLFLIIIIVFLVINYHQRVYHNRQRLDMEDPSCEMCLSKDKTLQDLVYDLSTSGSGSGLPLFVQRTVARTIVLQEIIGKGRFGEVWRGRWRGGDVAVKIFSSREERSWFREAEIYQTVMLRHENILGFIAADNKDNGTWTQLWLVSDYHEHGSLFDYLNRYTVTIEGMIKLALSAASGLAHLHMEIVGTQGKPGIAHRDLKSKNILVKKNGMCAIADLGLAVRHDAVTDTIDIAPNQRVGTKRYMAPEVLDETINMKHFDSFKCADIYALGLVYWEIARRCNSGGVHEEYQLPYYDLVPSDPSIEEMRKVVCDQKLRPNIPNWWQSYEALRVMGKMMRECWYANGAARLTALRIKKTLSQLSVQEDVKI

[9] = molecular target: Protein-tyrosine kinase 6 (Homo sapiens) (UniProt Q13882); settings: Compound concentration 1000.0 nM
[10] = molecular target: Serine/threonine-protein kinase SIK1 (Homo sapiens) (UniProt P57059); settings: Compound concentration 1000.0 nM
[11] = molecular target: T3, Alpha-1B adrenergic receptor (Homo sapiens) (UniProt P35368); settings: Compound concentration 10.0 uM
T3 sequence (whole entry): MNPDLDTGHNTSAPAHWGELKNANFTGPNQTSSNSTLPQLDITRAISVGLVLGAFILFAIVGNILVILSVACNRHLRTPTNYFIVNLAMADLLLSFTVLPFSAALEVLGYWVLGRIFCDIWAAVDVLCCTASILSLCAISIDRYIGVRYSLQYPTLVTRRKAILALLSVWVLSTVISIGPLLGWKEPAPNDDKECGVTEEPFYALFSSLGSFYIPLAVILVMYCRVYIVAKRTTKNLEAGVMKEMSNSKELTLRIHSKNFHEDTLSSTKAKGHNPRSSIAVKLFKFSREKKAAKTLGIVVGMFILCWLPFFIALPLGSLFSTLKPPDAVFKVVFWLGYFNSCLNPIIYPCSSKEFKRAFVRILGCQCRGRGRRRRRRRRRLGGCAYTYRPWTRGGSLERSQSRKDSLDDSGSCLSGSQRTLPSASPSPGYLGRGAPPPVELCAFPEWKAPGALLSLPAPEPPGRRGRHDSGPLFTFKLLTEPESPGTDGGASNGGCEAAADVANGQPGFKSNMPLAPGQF

[12] = molecular target: Serine/threonine-protein kinase 25 (Homo sapiens) (UniProt O00506); settings: Compound concentration 1000.0 nM
[13] = molecular target: Casein kinase I isoform gamma-3 (Homo sapiens) (UniProt Q9Y6M4); settings: Compound concentration 1000.0 nM
[14] = organism: Rattus norvegicus; settings: Compound concentration 10.0 uM
[15] = molecular target: Ephrin type-A receptor 7 (Homo sapiens) (UniProt Q15375); settings: Compound concentration 1000.0 nM
[16] = molecular target: Serine/threonine-protein kinase LATS1 (Homo sapiens) (UniProt O95835); settings: Compound concentration 1000.0 nM
[17] = molecular target: T4, Dual specificity mitogen-activated protein kinase kinase 6 (Homo sapiens) (UniProt P52564); settings: Compound concentration 1000.0 nM
T4 sequence (whole entry): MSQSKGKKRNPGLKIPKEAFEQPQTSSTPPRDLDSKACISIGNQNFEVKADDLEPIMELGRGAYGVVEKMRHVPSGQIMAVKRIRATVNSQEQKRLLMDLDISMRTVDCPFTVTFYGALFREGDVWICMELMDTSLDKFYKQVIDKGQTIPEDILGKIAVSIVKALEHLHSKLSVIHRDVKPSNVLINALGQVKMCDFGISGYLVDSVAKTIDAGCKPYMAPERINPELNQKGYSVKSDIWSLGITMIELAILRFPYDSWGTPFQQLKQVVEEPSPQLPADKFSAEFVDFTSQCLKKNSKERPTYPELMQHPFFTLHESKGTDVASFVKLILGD

[18] = system: Tyrosine-protein kinase ABL1 (Homo sapiens), P00519 [Y253F]; settings: Compound concentration 1000.0 nM
[19] = molecular target: Serine/threonine-protein kinase 38-like (Homo sapiens) (UniProt Q9Y2H1); settings: Compound concentration 1000.0 nM
[20] = system: Proto-oncogene tyrosine-protein kinase receptor Ret (Homo sapiens), P07949 [M918T]; settings: Compound concentration 1000.0 nM
[21] = molecular target: Ephrin type-A receptor 5 (Homo sapiens) (UniProt P54756); settings: Compound concentration 1000.0 nM
[22] = molecular target: Serine/threonine-protein kinase MRCK gamma (Homo sapiens) (UniProt Q6DT37); settings: Compound concentration 1000.0 nM
[23] = molecular target: Serine/threonine-protein kinase tousled-like 2 (Homo sapiens) (UniProt Q86UE8); settings: Compound concentration 1000.0 nM

Chain of Phosphatidylinositol 5-phosphate 4-kinase type-2 beta (Homo sapiens) (P78356 whole entry): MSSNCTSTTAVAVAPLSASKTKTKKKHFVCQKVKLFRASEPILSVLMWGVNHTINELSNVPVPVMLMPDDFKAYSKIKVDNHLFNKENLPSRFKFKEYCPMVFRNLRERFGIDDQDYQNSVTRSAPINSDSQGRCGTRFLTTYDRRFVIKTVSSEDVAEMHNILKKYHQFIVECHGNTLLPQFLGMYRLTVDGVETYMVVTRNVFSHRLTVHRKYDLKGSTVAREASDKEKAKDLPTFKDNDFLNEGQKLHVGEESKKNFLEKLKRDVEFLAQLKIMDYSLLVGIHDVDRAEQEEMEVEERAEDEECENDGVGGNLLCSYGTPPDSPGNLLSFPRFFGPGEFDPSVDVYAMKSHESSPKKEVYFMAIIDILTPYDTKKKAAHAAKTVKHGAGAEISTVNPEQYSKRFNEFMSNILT
Chain of Angiopoietin-1 receptor (Homo sapiens) (Q02763 whole entry): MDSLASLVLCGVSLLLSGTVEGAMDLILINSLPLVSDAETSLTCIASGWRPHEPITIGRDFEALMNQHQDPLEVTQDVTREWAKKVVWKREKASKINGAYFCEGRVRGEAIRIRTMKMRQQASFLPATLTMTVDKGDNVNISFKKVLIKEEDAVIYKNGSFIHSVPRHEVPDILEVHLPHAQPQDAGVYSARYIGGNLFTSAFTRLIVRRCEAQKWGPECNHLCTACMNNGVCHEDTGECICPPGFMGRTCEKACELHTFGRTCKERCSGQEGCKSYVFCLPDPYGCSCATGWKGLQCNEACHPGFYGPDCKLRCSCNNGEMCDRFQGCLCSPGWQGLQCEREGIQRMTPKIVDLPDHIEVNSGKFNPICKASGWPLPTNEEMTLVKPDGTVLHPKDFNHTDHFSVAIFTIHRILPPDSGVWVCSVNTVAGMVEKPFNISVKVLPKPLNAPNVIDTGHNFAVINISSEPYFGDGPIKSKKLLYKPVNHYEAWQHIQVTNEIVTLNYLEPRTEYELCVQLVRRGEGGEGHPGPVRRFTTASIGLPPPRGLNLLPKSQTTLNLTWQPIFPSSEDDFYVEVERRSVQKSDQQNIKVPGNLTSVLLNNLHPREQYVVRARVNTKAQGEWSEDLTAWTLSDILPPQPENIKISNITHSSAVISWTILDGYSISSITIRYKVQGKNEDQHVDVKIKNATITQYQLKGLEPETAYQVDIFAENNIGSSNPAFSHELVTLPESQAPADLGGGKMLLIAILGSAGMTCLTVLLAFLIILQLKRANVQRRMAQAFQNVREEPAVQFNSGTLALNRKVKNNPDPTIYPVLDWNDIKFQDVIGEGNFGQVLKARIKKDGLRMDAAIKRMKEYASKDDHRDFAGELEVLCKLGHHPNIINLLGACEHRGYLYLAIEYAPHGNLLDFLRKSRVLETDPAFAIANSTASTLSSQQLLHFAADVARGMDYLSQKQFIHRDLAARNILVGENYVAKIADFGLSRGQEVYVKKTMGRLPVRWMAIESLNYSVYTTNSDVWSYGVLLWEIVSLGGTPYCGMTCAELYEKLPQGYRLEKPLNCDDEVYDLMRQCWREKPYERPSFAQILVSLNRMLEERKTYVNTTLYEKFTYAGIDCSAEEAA
Chain of Ephrin type-A receptor 7 (Homo sapiens) (Q15375 28-998 limits assumed): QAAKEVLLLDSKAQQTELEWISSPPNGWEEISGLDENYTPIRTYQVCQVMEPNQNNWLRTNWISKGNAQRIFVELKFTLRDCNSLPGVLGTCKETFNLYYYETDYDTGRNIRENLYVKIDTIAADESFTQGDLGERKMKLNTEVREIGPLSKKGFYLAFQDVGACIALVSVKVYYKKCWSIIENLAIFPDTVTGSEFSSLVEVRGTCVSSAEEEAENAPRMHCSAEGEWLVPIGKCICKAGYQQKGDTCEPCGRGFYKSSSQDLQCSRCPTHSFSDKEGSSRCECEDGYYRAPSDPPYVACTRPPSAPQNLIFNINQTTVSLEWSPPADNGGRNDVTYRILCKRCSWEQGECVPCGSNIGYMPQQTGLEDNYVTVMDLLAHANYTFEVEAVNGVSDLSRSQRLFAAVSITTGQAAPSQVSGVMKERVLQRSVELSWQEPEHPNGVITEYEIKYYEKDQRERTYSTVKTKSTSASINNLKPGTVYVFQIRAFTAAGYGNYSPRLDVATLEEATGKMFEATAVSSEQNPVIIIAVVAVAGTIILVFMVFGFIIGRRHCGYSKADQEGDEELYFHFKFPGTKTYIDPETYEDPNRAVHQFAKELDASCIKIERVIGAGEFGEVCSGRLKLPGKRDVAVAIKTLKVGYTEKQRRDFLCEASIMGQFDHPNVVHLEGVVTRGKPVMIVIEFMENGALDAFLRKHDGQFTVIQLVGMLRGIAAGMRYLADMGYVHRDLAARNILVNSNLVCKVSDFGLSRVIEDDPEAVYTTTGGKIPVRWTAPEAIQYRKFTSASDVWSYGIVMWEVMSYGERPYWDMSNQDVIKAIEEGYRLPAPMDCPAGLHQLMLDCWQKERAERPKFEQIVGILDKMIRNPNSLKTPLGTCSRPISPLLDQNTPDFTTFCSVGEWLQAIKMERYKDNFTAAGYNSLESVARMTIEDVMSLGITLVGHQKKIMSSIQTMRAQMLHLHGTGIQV
Chain of Ephrin type-A receptor 5 (Homo sapiens) (P54756 whole entry): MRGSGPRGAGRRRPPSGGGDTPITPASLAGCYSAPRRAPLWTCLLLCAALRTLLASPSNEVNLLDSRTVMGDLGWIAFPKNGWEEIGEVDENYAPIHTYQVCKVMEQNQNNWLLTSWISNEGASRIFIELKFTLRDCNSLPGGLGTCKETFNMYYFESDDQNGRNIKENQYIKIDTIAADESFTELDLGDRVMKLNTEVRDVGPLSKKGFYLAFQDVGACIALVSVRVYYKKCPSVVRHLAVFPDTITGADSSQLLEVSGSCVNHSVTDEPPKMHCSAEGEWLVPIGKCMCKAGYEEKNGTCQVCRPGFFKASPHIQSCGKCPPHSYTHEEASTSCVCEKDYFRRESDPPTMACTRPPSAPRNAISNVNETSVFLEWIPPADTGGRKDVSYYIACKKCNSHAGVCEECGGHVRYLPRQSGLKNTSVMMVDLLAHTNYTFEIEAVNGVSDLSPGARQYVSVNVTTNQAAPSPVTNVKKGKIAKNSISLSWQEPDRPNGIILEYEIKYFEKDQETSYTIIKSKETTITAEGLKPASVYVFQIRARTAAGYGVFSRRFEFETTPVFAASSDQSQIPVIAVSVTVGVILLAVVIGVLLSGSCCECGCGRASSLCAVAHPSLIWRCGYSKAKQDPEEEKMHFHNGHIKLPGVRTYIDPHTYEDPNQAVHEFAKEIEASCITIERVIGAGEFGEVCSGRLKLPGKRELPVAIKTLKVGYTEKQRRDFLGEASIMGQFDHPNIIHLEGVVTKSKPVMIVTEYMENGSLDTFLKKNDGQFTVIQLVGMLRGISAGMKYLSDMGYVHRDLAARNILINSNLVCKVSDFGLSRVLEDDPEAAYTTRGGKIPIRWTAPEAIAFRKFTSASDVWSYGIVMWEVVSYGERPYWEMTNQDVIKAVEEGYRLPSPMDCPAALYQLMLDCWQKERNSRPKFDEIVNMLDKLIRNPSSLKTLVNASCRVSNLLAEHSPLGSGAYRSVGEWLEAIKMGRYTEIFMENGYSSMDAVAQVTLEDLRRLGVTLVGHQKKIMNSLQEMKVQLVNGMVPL
Chain of Proto-oncogene tyrosine-protein kinase receptor Ret (Homo sapiens), P07949 [M918T] (P07949 whole entry M918T): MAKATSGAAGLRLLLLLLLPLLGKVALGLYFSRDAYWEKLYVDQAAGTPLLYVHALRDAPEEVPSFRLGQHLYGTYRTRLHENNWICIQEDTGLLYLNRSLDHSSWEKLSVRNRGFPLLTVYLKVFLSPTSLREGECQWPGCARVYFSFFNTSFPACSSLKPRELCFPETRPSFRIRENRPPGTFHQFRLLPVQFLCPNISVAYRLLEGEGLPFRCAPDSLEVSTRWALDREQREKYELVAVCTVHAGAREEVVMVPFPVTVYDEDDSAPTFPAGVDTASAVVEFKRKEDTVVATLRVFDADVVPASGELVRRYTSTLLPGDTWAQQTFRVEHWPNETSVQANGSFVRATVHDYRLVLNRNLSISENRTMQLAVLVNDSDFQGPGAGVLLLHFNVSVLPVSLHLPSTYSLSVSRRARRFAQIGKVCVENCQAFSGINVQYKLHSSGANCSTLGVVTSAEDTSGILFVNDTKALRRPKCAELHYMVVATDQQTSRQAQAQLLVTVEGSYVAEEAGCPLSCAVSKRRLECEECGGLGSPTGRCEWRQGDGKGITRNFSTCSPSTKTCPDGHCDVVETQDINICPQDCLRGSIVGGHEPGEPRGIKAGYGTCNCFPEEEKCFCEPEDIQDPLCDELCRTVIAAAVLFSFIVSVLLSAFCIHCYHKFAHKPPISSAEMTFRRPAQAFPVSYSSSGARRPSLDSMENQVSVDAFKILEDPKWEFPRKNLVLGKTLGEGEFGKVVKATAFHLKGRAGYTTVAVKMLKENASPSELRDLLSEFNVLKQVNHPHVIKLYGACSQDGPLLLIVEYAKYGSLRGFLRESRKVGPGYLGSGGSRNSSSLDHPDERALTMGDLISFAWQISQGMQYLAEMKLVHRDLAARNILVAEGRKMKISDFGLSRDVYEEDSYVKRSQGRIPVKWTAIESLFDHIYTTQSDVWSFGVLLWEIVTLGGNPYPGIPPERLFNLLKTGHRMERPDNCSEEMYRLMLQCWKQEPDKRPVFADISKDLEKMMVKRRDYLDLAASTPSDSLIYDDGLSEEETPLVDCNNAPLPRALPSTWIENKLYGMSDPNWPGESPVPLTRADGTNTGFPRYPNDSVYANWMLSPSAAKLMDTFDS
Chain of Serine/threonine-protein kinase 25 (Homo sapiens) (O00506 whole entry, looked up, canonical isoform): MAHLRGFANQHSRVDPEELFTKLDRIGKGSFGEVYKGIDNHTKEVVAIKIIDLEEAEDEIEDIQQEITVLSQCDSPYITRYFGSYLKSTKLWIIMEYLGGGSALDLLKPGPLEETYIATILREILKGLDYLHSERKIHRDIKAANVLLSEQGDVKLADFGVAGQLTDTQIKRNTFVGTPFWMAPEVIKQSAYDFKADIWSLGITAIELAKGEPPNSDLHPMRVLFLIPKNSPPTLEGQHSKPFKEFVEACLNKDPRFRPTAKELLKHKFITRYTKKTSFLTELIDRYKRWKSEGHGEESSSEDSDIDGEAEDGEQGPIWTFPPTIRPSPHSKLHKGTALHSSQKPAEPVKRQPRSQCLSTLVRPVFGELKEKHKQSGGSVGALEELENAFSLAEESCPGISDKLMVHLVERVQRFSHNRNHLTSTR

CN(C)C(=O)Cn1cc(-c2nc(C3(c4ccc(-c5cnc(N)nc5)cc4)CC3)no2)cn1 [BI 0153]
residual activity [1]: 71% | residual activity [2]: 88% | residual activity [3]: 96% | residual activity [4]: 100% | residual activity [5]: 83% | residual activity [6]: 99% | residual activity [7]: 98% | residual activity [8]: 84% | residual activity [9]: 100% | residual activity [10]: 86% | inhibition [11]: 5.11% | residual activity [12]: 100% | residual activity [13]: 100% | inhibition [14]: 7.97% | residual activity [15]: 92% | residual activity [16]: 100% | residual activity [17]: 100% | residual activity [18]: 98% | residual activity [19]: 81% | residual activity [20]: 99% | residual activity [21]: 41% | residual activity [22]: 82% | residual activity [23]: 100%

CN(C)C(=O)Cn1cc(-c2nc([C@@](C)(c3ccc(-c4cnc(N)nc4)cc3)C3CC3)no2)cn1 [BI 665915]
residual activity [1]: 100% | residual activity [2]: 100% | residual activity [3]: 91% | residual activity [4]: 100% | residual activity [5]: 98% | residual activity [6]: 93% | residual activity [7]: 68% | residual activity [8]: 89% | residual activity [9]: 100% | residual activity [10]: 52% | inhibition [11]: 2.84% | residual activity [12]: 100% | residual activity [13]: 95% | inhibition [14]: 1.51% | residual activity [15]: 98% | residual activity [16]: 93% | residual activity [17]: 100% | residual activity [18]: 76% | residual activity [19]: 91% | residual activity [20]: 83% | residual activity [21]: 100% | residual activity [22]: 87% | residual activity [23]: 100%
